Measurements as given in US20200079765A1, “SUBSTITUTED HETEROARYL PYRROLONES AND SALTS THEREOF AND USE THEREOF AS HERBICIDAL ACTIVE SUBSTANCES” (Bayer CropScience Aktiengesellschaft, priority 2016, published 2020).

Assays:
Format in all cases: in vivo
Abutilon theophrasti [1] = assay: Post-emergence herbicidal action (Experimental Part 1, A); conditions: about 3 weeks after treatment, 100% = plants have died, 0% = like control plants
Experimental: (§1) Seeds of monocotyledonous and dicotyledonous weeds and crop plants were placed in sandy loam in plastic or wood-fiber pots, covered with soil and cultivated in a greenhouse under controlled growth conditions. 2 to 3 weeks after sowing, the test plants were treated at the one-leaf stage. The compounds of the invention, formulated in the form of wettable powders (WP) or as emulsion concentrates (EC), were then sprayed onto the green parts of the plants as aqueous suspension or emulsion with addition of 0.5% additive at a water application rate of 600 l/ha (converted). After the test plants had been kept in the greenhouse under optimum growth conditions for about 3 weeks, the activity of the preparations was rated visually in comparison to untreated controls. For example, 100% activity=the plants have died, 0% activity=like control plants. Tables A1 to A14 below show the effects of selected compounds of the general formula (I) according to Tables I.1 to I.116 on various harmful plants and an application rate corresponding to 1280 g/ha or 320 g/ha, which were obtained by the experimental procedure mentioned above.

Alopecurus myosuroides [2] = assay: as above; conditions: about 3 weeks after treatment, 100% = plants have died, 0% = like control plants
Experimental: as §1

Amaranthus retroflexus [3] = assay: as above; conditions: about 3 weeks after treatment, 100% = plants have died, 0% = like control plants
Experimental: as §1

Avena fatua [4] = assay: as above; conditions: rated visually after about 3 weeks
Experimental: as §1

Echinochloa crus-galli [5] = assay: as above; conditions: about 3 weeks after treatment, 100% = plants have died, 0% = like control plants
Experimental: as §1

Hordeum murinum [6] = assay: as above; conditions: application rate 1280 g/ha, rated visually after about 3 weeks
Experimental: as §1

Ipomoea purpurea [7] = assay: as above; conditions: application rate 1280 g/ha, rated visually after about 3 weeks
Experimental: as §1

Lolium rigidum [8] = assay: as above; conditions: application rate 1280 g/ha, rated visually after about 3 weeks
Experimental: as §1

Matricaria inodora [9] = assay: as above; conditions: rated visually after about 3 weeks
Experimental: as §1

Polygonum convolvulus [10] = assay: as above; conditions: rated visually after about 3 weeks
Experimental: as §1

Setaria viridis [11] = assay: as above; conditions: about 3 weeks after treatment, 100% = plants have died, 0% = like control plants
Experimental: as §1

Stellaria media [12] = assay: as above; conditions: rated visually after about 3 weeks
Experimental: as §1

Veronica persica [13] = assay: as above; conditions: application rate 1280 g/ha, about 3 weeks after treatment, 100% = plants have died, 0% = like control plants
Experimental: as §1

Viola tricolor [14] = assay: as above; conditions: rated visually after about 3 weeks
Experimental: as §1

Abutilon theophrasti [15] = assay: Pre-emergence herbicidal action (Experimental Part 1, B); conditions: scored visually after about 3 weeks
Description: (§2) Seeds of monocotyledonous and dicotyledonous weed plants and crop plants were placed in plastic or organic planting pots and covered with soil. The compounds of the invention, formulated in the form of wettable powders (WP) or as emulsion concentrates (EC), were then applied onto the surface of the covering soil as aqueous suspension or emulsion with addition of 0.5% additive at a water application rate of 600 l/ha (converted). After the treatment, the pots were placed in a greenhouse and kept under good growth conditions for the test plants. After about 3 weeks, the effect of the preparations was scored visually in comparison with untreated controls as percentages. For example, 100% activity=the plants have died, 0% activity=like control plants. Tables B1 to B14 below show the effects of selected compounds of the general formula (I) according to Tables I.1 to I.116 on various harmful plants and an application rate corresponding to 1280 g/ha or 320 g/ha, which were obtained by the experimental procedure mentioned above.

Alopecurus myosuroides [16] = assay: as above; conditions: scored visually after about 3 weeks
Description: as §2

Amaranthus retroflexus [17] = assay: as above; conditions: scored visually after about 3 weeks
Description: as §2

Avena fatua [18] = assay: as above; conditions: scored visually after about 3 weeks
Description: as §2

Echinochloa crus-galli [19] = assay: as above; conditions: application rate 1280 g/ha, scored visually after about 3 weeks
Description: as §2

Hordeum murinum [20] = assay: as above; conditions: scored visually after about 3 weeks
Description: as §2

Ipomoea purpurea [21] = assay: as above; conditions: application rate 1280 g/ha, scored visually after about 3 weeks
Description: as §2

Lolium rigidum [22] = assay: as above; conditions: application rate 1280 g/ha, scored visually after about 3 weeks
Description: as §2

Matricaria inodora [23] = assay: as above; conditions: scored visually after about 3 weeks
Description: as §2

Polygonum convolvulus [24] = assay: as above; conditions: scored visually after about 3 weeks
Description: as §2

Setaria viridis [25] = assay: as above; conditions: scored visually after about 3 weeks
Description: as §2

Stellaria media [26] = assay: as above; conditions: scored visually after about 3 weeks
Description: as §2

Veronica persica [27] = assay: as above; conditions: application rate 1280 g/ha, scored visually after about 3 weeks
Description: as §2

Viola tricolor [28] = assay: as above; conditions: scored visually after about 3 weeks
Description: as §2

SMILES: CC(=O)OC1C(C)=CC(=O)N1c1cc(C(C)(C)C)on1 (stereo not drawn) [I.3-162]
- herbicidal activity on Abutilon theophrasti (visual rating vs untreated controls) (Abutilon theophrasti [1]; application rate 320 g/ha): 100%
- herbicidal activity on Abutilon theophrasti (visual rating vs untreated controls) (Abutilon theophrasti [1]; application rate 1280 g/ha): 100%
- herbicidal activity on Alopecurus myosuroides (visual rating vs untreated controls) (Alopecurus myosuroides [2]; application rate 320 g/ha): 100%
- herbicidal activity on Alopecurus myosuroides (visual rating vs untreated controls) (Alopecurus myosuroides [2]; application rate 1280 g/ha): 100%
- herbicidal activity on Amaranthus retroflexus (visual rating vs untreated controls) (Amaranthus retroflexus [3]; application rate 320 g/ha): 90%
- herbicidal activity on Amaranthus retroflexus (visual rating vs untreated controls) (Amaranthus retroflexus [3]; application rate 1280 g/ha): 100%
- Avena fatua, herbicidal activity (Avena fatua [4]; application rate 320 g/ha): 90%
- Avena fatua, herbicidal activity (Avena fatua [4]; application rate 1280 g/ha): 90%
- herbicidal activity on Echinochloa crus-galli (visual rating vs untreated controls) (Echinochloa crus-galli [5]; application rate 320 g/ha): 90%
- herbicidal activity on Echinochloa crus-galli (visual rating vs untreated controls) (Echinochloa crus-galli [5]; application rate 1280 g/ha): 100%
- Hordeum murinum, herbicidal activity (Hordeum murinum [6]): 100%
- Ipomoea purpurea, herbicidal activity (Ipomoea purpurea [7]): 90%
- Lolium rigidum, herbicidal activity (Lolium rigidum [8]): 90%
- Matricaria inodora, herbicidal activity (Matricaria inodora [9]; application rate 320 g/ha): 100%
- Matricaria inodora, herbicidal activity (Matricaria inodora [9]; application rate 1280 g/ha): 100%
- Polygonum convolvulus, herbicidal activity (Polygonum convolvulus [10]; application rate 320 g/ha): 100%
- Polygonum convolvulus, herbicidal activity (Polygonum convolvulus [10]; application rate 1280 g/ha): 100%
- herbicidal activity on Setaria viridis (visual rating vs untreated controls) (Setaria viridis [11]; application rate 320 g/ha): 100%
- herbicidal activity on Setaria viridis (visual rating vs untreated controls) (Setaria viridis [11]; application rate 1280 g/ha): 100%
- Stellaria media, herbicidal activity (Stellaria media [12]; application rate 320 g/ha): 100%
- Stellaria media, herbicidal activity (Stellaria media [12]; application rate 1280 g/ha): 100%
- herbicidal activity on Veronica persica (visual rating vs untreated controls) (Veronica persica [13]): 100%
- Viola tricolor, herbicidal activity (Viola tricolor [14]; application rate 320 g/ha): 100%
- Viola tricolor, herbicidal activity (Viola tricolor [14]; application rate 1280 g/ha): 100%
- Abutilon theophrasti, herbicidal activity (Abutilon theophrasti [15]; application rate 320 g/ha): 100%
- Abutilon theophrasti, herbicidal activity (Abutilon theophrasti [15]; application rate 1280 g/ha): 100%
- Alopecurus myosuroides, herbicidal activity (Alopecurus myosuroides [16]; application rate 320 g/ha): 90%
- Alopecurus myosuroides, herbicidal activity (Alopecurus myosuroides [16]; application rate 1280 g/ha): 90%
- Amaranthus retroflexus, herbicidal activity (Amaranthus retroflexus [17]; application rate 320 g/ha): 100%
- Amaranthus retroflexus, herbicidal activity (Amaranthus retroflexus [17]; application rate 1280 g/ha): 100%
- Avena fatua, herbicidal activity (Avena fatua [18]; application rate 320 g/ha): 90%
- Avena fatua, herbicidal activity (Avena fatua [18]; application rate 1280 g/ha): 90%
- Echinochloa crus-galli, herbicidal activity (Echinochloa crus-galli [19]): 100%
- Hordeum murinum, herbicidal activity (Hordeum murinum [20]; application rate 320 g/ha): 90%
- Hordeum murinum, herbicidal activity (Hordeum murinum [20]; application rate 1280 g/ha): 100%
- Ipomoea purpurea, herbicidal activity (Ipomoea purpurea [21]): 90%
- Lolium rigidum, herbicidal activity (Lolium rigidum [22]): 90%
- Matricaria inodora, herbicidal activity (Matricaria inodora [23]; application rate 320 g/ha): 100%
- Matricaria inodora, herbicidal activity (Matricaria inodora [23]; application rate 1280 g/ha): 100%
- Polygonum convolvulus, herbicidal activity (Polygonum convolvulus [24]; application rate 320 g/ha): 100%
- Polygonum convolvulus, herbicidal activity (Polygonum convolvulus [24]; application rate 1280 g/ha): 100%
- Setaria viridis, herbicidal activity (Setaria viridis [25]; application rate 320 g/ha): 100%
- Setaria viridis, herbicidal activity (Setaria viridis [25]; application rate 1280 g/ha): 100%
- Stellaria media, herbicidal activity (Stellaria media [26]; application rate 320 g/ha): 90%
- Stellaria media, herbicidal activity (Stellaria media [26]; application rate 1280 g/ha): 100%
- Veronica persica, herbicidal activity (Veronica persica [27]): 100%
- Viola tricolor, herbicidal activity (Viola tricolor [28]; application rate 320 g/ha): 100%
- Viola tricolor, herbicidal activity (Viola tricolor [28]; application rate 1280 g/ha): 100%
